The target in assay [1] is Mitogen-activated protein kinase kinase kinase 5 (Homo sapiens) (UniProt Q99683). Briefly: Inhibition of wild-type human partial length ASK1 (E648 to S964 residues) expressed in bacterial expression system at 1 uM by Kinomescan method relative to control.
The target of assay [2] is Cyclin-dependent kinase-like 2 (Homo sapiens) (UniProt Q92772). Briefly: Inhibition of wild-type human partial length CDKL2 (M1 to D327 residues) expressed in bacterial expression system at 1 uM by Kinomescan method relative to control.
Assay [3] has as its target Casein kinase I isoform epsilon (Homo sapiens) (UniProt P49674). Briefly: Inhibition of wild-type human full length CSNK1E (M1 to K416 residues) expressed in bacterial expression system at 1 uM by Kinomescan method relative to control.
The target in assay [4] is Serine/threonine-protein kinase DCLK1 (Homo sapiens) (UniProt O15075). The assay is described as follows: Inhibition of wild-type human partial length DCAMKL1 (L270 to A662 residues) expressed in mammalian expression system at 1 uM by Kinomescan method relative to control.
The subject of assay [5] is Receptor-type tyrosine-protein kinase FLT3 (Homo sapiens), P36888 [N841I]. Briefly: Inhibition of human partial length FLT3 N841I mutant (V592 to Y969 residues) expressed in bacterial expression system at 1 uM by Kinomescan method relative to control.
The target in assay [6] is Mast/stem cell growth factor receptor Kit (Homo sapiens) (UniProt P10721). The assay is described as follows: Inhibition of wild-type human partial length KIT (I571 to D952 residues) expressed in bacterial expression system at 1 uM by Kinomescan method relative to control.
In assay [7] the target is Mitogen-activated protein kinase kinase kinase 2 (Homo sapiens) (UniProt Q9Y2U5). Briefly: Inhibition of wild-type human partial length MAP3K2 (S315 to H619 residues) expressed in mammalian expression system at 1 uM by Kinomescan method relative to control.
Assay [8] has as its target Macrophage-stimulating protein receptor (Homo sapiens) (UniProt Q04912). The assay is described as follows: Inhibition of wild-type human partial length MST1R (I1057 to L1363 residues) expressed in bacterial expression system at 1 uM by Kinomescan method relative to control.
For assay [9], the target named is Myosin-IIIb (Homo sapiens) (UniProt Q8WXR4). The assay is described as follows: Inhibition of wild-type human partial length MYO3B (M1 to D357 residues) expressed in bacterial expression system at 1 uM by Kinomescan method relative to control.
The target in assay [10] is Cyclin-dependent kinase 14 (Homo sapiens) (UniProt O94921). The assay is described as follows: Inhibition of wild-type human full length PFTK1 (M1 to H451 residues) expressed in bacterial expression system at 1 uM by Kinomescan method relative to control.
Assay [11] concerns the target Serine/threonine-protein kinase D3 (Homo sapiens) (UniProt O94806). The assay is described as follows: Inhibition of wild-type human partial length PRKD3 (S543 to E863 residues) expressed in bacterial expression system at 1 uM by Kinomescan method relative to control.
The test system of assay [12] is Proto-oncogene tyrosine-protein kinase receptor Ret (Homo sapiens), P07949 [V804M]. Briefly: Inhibition of human partial length RET V804M mutant (E713 to D1014 residues) expressed in bacterial expression system at 1 uM by Kinomescan method relative to control.
In assay [13] the target is Ribosomal protein S6 kinase alpha-5 (Homo sapiens) (UniProt O75582). Briefly: Inhibition of wild-type human partial length C-terminal RPS6KA5 kinase domain 2 (V390 to T718 residues) expressed in bacterial expression system at 1 uM by Kinomescan method relative to control.
Assay [14] deals with Ribosomal protein S6 kinase beta-1 (Homo sapiens) (UniProt P23443). The assay is described as follows: Inhibition of wild-type human partial length S6K1 (M1 to S421 residues) expressed in mammalian expression system at 1 uM by Kinomescan method relative to control.
The target in assay [15] is Serine/threonine-protein kinase tousled-like 1 (Homo sapiens) (UniProt Q9UKI8). Briefly: Inhibition of wild-type human partial length TLK1 (K447 to A754 residues) expressed in bacterial expression system at 1 uM by Kinomescan method relative to control.
Assay [16] concerns Tyrosine-protein kinase ABL1 (Homo sapiens), P00519 [H396P]. Briefly: Inhibition of human non-phosphorylated ABL1 H396P mutant (S229 to K512 residues) expressed in mammalian expression system at 10 uM by Kinomescan method relative to control.
The target in assay [17] is Discoidin domain-containing receptor 2 (Homo sapiens) (UniProt Q16832). Briefly: Inhibition of wild-type human partial length DDR2 (V555 to E855 residues) expressed in mammalian expression system at 10 uM by Kinomescan method relative to control.
Assay [18] deals with Ephrin type-A receptor 3 (Homo sapiens) (UniProt P29320). The assay is described as follows: Inhibition of wild-type human partial length EPHA3 (D604 to K889 residues) expressed in bacterial expression system at 10 uM by Kinomescan method relative to control.
For assay [19], the target named is G protein-coupled receptor kinase 3 (Homo sapiens) (UniProt P35626). Briefly: Inhibition of wild-type human full length GRK3 (M1 to L688 residues) expressed in mammalian expression system at 10 uM by Kinomescan method relative to control.
The target in assay [20] is Homeodomain-interacting protein kinase 2 (Homo sapiens) (UniProt Q9H2X6). The assay is described as follows: Inhibition of wild-type human partial length HIPK2 (M153 to S564 residues) expressed in mammalian expression system at 10 uM by Kinomescan method relative to control.
Assay [21] deals with Interleukin-1 receptor-associated kinase 3 (Homo sapiens) (UniProt Q9Y616). The assay is described as follows: Inhibition of wild-type human partial length IRAK3 (V147 to E596 residues) expressed in bacterial expression system at 10 uM by Kinomescan method relative to control.
Assay [22] deals with Mitogen-activated protein kinase 10 (Homo sapiens) (UniProt P53779). The assay is described as follows: Inhibition of wild-type human partial length JNK3 (V28 to Q422 residues) expressed in mammalian expression system at 10 uM by Kinomescan method relative to control.
In assay [23] the target is Mitogen-activated protein kinase kinase kinase kinase 3 (Homo sapiens) (UniProt Q8IVH8). The assay is described as follows: Inhibition of wild-type human partial length MAP4K3 (M1 to D301 residues) expressed in bacterial expression system at 10 uM by Kinomescan method relative to control.
Assay [24] addresses Serine/threonine-protein kinase pim-3 (Homo sapiens) (UniProt Q86V86). Briefly: Inhibition of wild-type human partial length PIM3 (G16 to A317 residues) expressed in bacterial expression system at 10 uM by Kinomescan method relative to control.
Assay [25] concerns the target Phosphatidylinositol 4-phosphate 5-kinase type-1 gamma (Homo sapiens) (UniProt O60331). Briefly: Inhibition of wild-type human partial length PIP5K1C (M1 to T668 residues) expressed in mammalian expression system at 10 uM by Kinomescan method relative to control.
The target in assay [26] is Proto-oncogene tyrosine-protein kinase ROS (Homo sapiens) (UniProt P08922). The assay is described as follows: Inhibition of wild-type human partial length ROS1 (A1921 to N2240 residues) expressed in bacterial expression system at 10 uM by Kinomescan method relative to control.

Inhibition data for two compounds are collected here from ChEMBL document CHEMBL4387741, “Optimization of novel reversible Bruton's tyrosine kinase inhibitors identified using Tethering-fragment-based screens” (Bioorg Med Chem, 2019).

For orientation: inhibition means how much of the control response was suppressed. The low end stands for a response near the control, the high end for a response far below the control.

Chain of Ephrin type-A receptor 3 (Homo sapiens) (P29320 whole entry, the tested form may be a part): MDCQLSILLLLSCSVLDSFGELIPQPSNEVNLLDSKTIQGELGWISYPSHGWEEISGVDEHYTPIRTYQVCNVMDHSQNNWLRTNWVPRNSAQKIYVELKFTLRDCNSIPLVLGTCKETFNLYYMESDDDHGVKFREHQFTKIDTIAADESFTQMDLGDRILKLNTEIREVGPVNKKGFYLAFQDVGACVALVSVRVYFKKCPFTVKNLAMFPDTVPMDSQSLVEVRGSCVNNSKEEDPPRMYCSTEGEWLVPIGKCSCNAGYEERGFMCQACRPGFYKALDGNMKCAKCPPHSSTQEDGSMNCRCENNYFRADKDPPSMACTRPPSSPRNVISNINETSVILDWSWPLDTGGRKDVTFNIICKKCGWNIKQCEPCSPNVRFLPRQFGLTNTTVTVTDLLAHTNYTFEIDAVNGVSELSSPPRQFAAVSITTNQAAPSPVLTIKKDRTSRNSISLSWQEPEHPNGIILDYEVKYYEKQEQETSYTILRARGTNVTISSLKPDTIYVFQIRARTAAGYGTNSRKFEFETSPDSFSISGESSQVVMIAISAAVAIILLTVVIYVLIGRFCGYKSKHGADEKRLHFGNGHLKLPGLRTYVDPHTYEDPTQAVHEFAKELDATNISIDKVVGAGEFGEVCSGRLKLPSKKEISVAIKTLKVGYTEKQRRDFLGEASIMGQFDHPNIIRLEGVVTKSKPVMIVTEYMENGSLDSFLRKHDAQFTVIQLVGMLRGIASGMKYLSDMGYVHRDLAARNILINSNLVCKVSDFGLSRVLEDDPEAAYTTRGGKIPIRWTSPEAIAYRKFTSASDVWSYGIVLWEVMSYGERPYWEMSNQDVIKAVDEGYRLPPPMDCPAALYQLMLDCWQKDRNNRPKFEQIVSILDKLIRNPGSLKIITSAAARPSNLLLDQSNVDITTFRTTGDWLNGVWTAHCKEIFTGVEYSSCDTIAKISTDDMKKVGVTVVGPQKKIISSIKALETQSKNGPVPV
Chain of Mitogen-activated protein kinase 10 (Homo sapiens) (P53779 whole entry, the tested form may be a part): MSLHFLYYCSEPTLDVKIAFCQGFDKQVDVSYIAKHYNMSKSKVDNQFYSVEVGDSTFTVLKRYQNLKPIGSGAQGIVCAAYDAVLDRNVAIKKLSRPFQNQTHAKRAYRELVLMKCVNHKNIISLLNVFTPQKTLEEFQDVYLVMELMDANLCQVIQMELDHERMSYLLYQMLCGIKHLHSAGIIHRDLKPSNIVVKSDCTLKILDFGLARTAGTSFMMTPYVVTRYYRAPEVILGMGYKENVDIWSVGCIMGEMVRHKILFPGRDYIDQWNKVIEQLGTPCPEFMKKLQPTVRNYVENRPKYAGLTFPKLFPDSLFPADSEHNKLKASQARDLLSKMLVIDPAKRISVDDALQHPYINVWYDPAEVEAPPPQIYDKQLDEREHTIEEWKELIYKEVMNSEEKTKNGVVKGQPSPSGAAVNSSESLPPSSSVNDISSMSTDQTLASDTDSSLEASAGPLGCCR
Chain of Discoidin domain-containing receptor 2 (Homo sapiens) (Q16832 whole entry, the tested form may be a part): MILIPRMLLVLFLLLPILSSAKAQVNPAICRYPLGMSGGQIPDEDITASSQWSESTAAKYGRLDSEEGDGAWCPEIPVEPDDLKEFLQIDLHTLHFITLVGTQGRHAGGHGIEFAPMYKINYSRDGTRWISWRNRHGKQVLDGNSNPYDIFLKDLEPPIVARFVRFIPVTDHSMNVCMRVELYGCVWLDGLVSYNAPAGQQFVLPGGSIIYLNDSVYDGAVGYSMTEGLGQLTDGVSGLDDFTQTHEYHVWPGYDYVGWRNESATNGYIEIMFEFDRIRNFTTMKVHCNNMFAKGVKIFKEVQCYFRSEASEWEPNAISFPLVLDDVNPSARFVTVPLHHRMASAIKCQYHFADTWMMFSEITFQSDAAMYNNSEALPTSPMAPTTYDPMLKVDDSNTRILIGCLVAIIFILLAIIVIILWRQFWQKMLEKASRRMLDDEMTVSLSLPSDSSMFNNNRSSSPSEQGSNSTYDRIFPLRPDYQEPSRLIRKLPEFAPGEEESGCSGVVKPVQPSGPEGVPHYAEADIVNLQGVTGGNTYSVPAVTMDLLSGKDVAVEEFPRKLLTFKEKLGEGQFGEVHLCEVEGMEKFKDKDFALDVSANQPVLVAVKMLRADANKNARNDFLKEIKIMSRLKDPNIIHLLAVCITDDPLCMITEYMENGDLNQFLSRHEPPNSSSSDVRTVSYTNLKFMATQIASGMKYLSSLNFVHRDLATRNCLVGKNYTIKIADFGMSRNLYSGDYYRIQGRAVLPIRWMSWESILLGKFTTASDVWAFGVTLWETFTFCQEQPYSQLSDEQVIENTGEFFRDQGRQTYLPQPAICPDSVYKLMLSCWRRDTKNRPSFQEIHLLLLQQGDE
Chain of Serine/threonine-protein kinase DCLK1 (Homo sapiens) (O15075 whole entry, the tested form may be a part): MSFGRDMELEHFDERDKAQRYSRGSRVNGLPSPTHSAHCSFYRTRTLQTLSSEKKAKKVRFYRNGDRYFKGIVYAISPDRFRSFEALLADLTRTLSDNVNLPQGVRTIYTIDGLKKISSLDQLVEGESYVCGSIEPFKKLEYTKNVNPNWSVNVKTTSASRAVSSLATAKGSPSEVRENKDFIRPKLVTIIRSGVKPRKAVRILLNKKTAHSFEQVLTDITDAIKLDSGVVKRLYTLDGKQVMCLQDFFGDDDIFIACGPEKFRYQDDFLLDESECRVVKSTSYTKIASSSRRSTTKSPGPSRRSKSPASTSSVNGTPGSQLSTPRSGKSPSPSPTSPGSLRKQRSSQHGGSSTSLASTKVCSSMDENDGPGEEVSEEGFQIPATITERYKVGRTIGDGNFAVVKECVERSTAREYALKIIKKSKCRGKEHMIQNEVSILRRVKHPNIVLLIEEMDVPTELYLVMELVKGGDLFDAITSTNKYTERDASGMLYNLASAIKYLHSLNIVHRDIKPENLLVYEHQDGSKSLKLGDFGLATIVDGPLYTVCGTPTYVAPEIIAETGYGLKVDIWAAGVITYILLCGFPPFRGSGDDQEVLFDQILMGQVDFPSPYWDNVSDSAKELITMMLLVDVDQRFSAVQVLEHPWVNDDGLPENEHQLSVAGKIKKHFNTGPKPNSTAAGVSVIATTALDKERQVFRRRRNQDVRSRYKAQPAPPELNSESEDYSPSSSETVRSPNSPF
Chain of Mitogen-activated protein kinase kinase kinase 5 (Homo sapiens) (Q99683 whole entry, the tested form may be a part): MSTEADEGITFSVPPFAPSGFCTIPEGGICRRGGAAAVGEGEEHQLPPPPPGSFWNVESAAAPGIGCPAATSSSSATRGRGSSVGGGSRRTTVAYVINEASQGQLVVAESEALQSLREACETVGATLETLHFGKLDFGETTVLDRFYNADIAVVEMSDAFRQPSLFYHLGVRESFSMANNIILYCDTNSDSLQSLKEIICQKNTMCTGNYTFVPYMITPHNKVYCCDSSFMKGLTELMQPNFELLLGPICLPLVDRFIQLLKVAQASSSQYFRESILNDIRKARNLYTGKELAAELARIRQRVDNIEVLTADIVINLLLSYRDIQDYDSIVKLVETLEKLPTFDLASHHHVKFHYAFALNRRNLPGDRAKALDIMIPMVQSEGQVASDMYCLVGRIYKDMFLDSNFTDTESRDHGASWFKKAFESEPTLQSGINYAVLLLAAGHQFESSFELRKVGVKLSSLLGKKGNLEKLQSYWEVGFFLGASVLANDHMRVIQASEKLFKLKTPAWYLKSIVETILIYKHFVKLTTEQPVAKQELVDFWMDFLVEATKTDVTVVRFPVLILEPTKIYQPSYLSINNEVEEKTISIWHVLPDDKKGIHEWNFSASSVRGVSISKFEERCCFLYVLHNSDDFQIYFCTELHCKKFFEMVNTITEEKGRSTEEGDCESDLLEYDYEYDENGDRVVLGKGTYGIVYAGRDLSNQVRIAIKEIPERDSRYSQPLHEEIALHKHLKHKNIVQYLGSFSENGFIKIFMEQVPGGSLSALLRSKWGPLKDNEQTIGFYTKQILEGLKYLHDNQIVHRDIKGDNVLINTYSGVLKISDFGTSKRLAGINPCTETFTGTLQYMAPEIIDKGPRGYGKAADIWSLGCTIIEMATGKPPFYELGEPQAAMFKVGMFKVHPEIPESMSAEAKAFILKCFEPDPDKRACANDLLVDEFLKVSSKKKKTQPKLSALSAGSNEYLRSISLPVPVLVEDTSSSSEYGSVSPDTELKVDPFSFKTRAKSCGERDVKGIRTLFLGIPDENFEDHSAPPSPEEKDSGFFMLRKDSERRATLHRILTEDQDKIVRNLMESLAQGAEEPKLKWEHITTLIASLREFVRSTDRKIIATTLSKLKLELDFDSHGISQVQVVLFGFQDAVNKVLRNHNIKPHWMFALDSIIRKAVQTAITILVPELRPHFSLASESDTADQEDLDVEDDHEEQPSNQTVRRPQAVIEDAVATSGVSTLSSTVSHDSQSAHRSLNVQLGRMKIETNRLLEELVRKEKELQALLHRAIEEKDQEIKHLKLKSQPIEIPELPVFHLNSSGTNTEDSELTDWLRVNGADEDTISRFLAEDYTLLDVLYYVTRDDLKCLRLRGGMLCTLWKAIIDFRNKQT

For the compound `O=C(Nc1cccc([C@@H]2CN(c3ncnc4[nH]ccc34)CCN2CCO)c1)Nc1c(F)cccc1N1CCCC1`, the inhibition in assay [1] came out at 97%; in assay [2], 100%; in assay [3], 94%; in assay [4] it was 36%; in assay [5], 28%; in [6], 73%. Also, the inhibition in assay [7] is 40%; in assay [8], 100%; in [9], 94%; in [10], 89%; in assay [11], 86%; in assay [12] it was 0.95%. The inhibition was 96% in assay [13], 48% in assay [14] and 100% in [15].

With `O=C(Nc1cccc([C@H]2CCCN(c3ncnc4[nH]ccc34)C2)c1)Nc1ccccc1N1CCCC1`, the inhibition in assay [16] was determined as 12%; in [17] it was 0.55%; in assay [18] it was 74%; in [19] it was 71%; in assay [20], 64%; in assay [21] it was 92%. Moreover, the inhibition is 64% in [22]; 47% in [23]; 89% in assay [24]; 59% in assay [25]; 72% in assay [26].
